Patent US11345694B2, “Antibacterial compounds” (DISCUVA LTD., priority 2017, dated 2022)
≈ marks a conversion by molar mass, not a printed value.

Columns and labels:
[1] = tested on: E. coli NCTC 13441 (UPEC); test: MIC broth microdilution; assay type: cell-based, Escherichia coli; conditions: for MIC: Escherichia coli, NCTC13441
Method in brief: (§1)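 Read-out is visible growth: the MIC is the lowest compound concentration that prevents it after incubating 20-24 hours at 37° C in air. Compounds span 0.39-200 μM final (two-fold steps, up to 2% DMSO) in cation-adjusted Müller-Hinton broth, following CLSI guidelines for planktonic bacteria.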

[2] = tested on: Acinetobacter baumannii ATCC 17978 (AB); test: MIC broth microdilution; assay type: cell-based; conditions: for MIC: ATCC17978
Method in brief: as §1

[3] = tested on: Enterobacter cloacae DSM 30054 (Ed); test: MIC broth microdilution; assay type: cell-based; conditions: for MIC: DSM30054
Method in brief: (§2)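 Growth inhibition read after 20-24 hour incubation at 37° C in ambient atmosphere; MIC is the lowest compound concentration with no growth. Planktonic bacteria in cation-adjusted Müller-Hinton broth were exposed to two-fold dilutions (0.39-200 μM final; ≤2% DMSO final) per CLSI guidelines.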

[4] = tested on: Escherichia coli K12 (EC); test: MIC broth microdilution; assay type: cell-based
Method in brief: as §1

[5] = tested on: Pseudomonas aeruginosa ATCC 33359 (PA); test: MIC broth microdilution; assay type: cell-based; conditions: for MIC: ATCC33359
Method in brief: as §1

[6] = tested on: Salmonella typhimurium XNAA5 (St); test: MIC broth microdilution; assay type: cell-based; conditions: for MIC: Salmonella enterica
Method in brief: as §1

[7] = tested on: Serratia marcescens SL1344 (Sm); test: MIC broth microdilution; assay type: cell-based
Method in brief: as §1

[8] = tested on: Staphylococcus aureus ATCC 35556 (SA); test: MIC broth microdilution; assay type: cell-based; conditions: for MIC: ATCC35556
Method in brief: as §1

[9] = tested on: Klebsiella pneumoniae ATCC 10031 (KP2); test: MIC broth microdilution; assay type: cell-based; conditions: ATCC10031
Method in brief: as §2

[10] = tested on: K. pneumoniae NCTC 13438 (KP1); test: MIC broth microdilution; assay type: cell-based, Klebsiella pneumoniae; conditions: Klebsiella pneumoniae, NCTC13438
Method in brief: as §2

[11] = tested on: human hepatocarcinoma cell line ATCC HB-8065 (HepG2); test: Human cell viability (CellTiter-Glo); assay type: cell-based; conditions: Homo sapiens; HepG2 cells, 24 h incubation, CellTiter-Glo luminescence, 0.2-100 μM; read-out: IC50 values against the HepG2 cell line
Method in brief: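 Cytotoxicity was read as CellTiter-Glo luminescence after 24 h compound exposure at 37° C., 5% CO2. Final concentrations spanned 0.2-100 μM in two-fold steps, in 1% FBS MEM with 1% DMSO, on cells plated a day earlier at 20,000/well. IC50 came from 4-parameter logistic regression.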

[12] = tested on: Klebsiella pneumoniae ATCC 51504 (KP4); test: MIC broth microdilution; assay type: cell-based; conditions: ATCC51504
Method in brief: as §1

[13] = tested on: K. pneumoniae ATCC 700603 (KP3); test: MIC broth microdilution; assay type: cell-based, Klebsiella pneumoniae; conditions: Klebsiella pneumoniae, ATCC700603
Method in brief: as §2

[14] = tested on: K. pneumoniae H151440671 (KP10); test: MIC broth microdilution; assay type: cell-based, Klebsiella pneumoniae; conditions: Klebsiella pneumoniae
Method in brief: as §2

[15] = tested on: K. pneumoniae H154020667 (KP6); test: MIC broth microdilution; assay type: cell-based, Klebsiella pneumoniae; conditions: Klebsiella pneumoniae
Method in brief: as §2

[16] = tested on: K. pneumoniae H154300688 (KP9); test: MIC broth microdilution; assay type: cell-based, Klebsiella pneumoniae; conditions: Klebsiella pneumoniae
Method in brief: as §2

[17] = tested on: K. pneumoniae H154600588 (KP8); test: MIC broth microdilution; assay type: cell-based, Klebsiella pneumoniae; conditions: Klebsiella pneumoniae
Method in brief: as §2

[18] = tested on: K. pneumoniae H154640784 (KP7); test: MIC broth microdilution; assay type: cell-based, Klebsiella pneumoniae; conditions: Klebsiella pneumoniae
Method in brief: as §2

[19] = tested on: K. pneumoniae H154680676 (KP5); test: MIC broth microdilution; assay type: cell-based, Klebsiella pneumoniae; conditions: Klebsiella pneumoniae
Method in brief: as §2

SMILES: NC[C@H]1O[C@H](O[C@H]2[C@H](O)[C@@H](O[C@H]3O[C@H](CO)[C@@H](O)[C@H](N)[C@H]3O)[C@H](N)C[C@@H]2N)[C@H](N)C[C@@H]1O [TOB]
- MIC UPEC [1]: D (a MIC of over 100 is assigned the letter D)
- MIC AB [2]: B (a MIC of from 1 to 10 is assigned the letter B)
- MIC Ecl [3]: C (a MIC of from 10 to 100 is assigned the letter C)
- MIC EC [4]: B (a MIC of from 1 to 10 is assigned the letter B)
- MIC PA [5]: B (a MIC of from 1 to 10 is assigned the letter B)
- MIC St [6]: B (a MIC of from 1 to 10 is assigned the letter B)
- MIC Sm [7]: A (an MIC (μM) of less or equal to 1 is assigned the letter A)
- MIC SA [8]: B (a MIC of from 1 to 10 is assigned the letter B)

SMILES: Cc1cc(-c2nc(N)[nH]c2-c2ccc(Cl)cc2)ccn1 [Example 4, 5-(4-Chlorophenyl)-4-(2-methylpyridin-4-yl)-1H-imidazol-2-amine]
- MIC [1]: 1 to 10 µM (≈ 0.285 to 2.85 µg/mL)
- MIC [2]: > 100 µM
- MIC [3]: 1 to 10 µM (≈ 0.285 to 2.85 µg/mL)
- MIC [4]: ≤ 1 µM
- MIC [9]: ≤ 1 µM
- MIC [5]: > 100 µM
- MIC [6]: 1 to 10 µM (≈ 0.285 to 2.85 µg/mL)
- MIC [7]: 10 to 100 µM (≈ 2.85 to 28.5 µg/mL)
- MIC [8]: > 100 µM
- MIC [10]: 10 to 100 µM (≈ 2.85 to 28.5 µg/mL)
- IC50 [11]: > 100 µM

SMILES: COc1ccc(-c2[nH]c(N)nc2-c2ccnc(C)c2)cc1 [Example 21, 5-(4-Methoxyphenyl)-4-(2-methylpyridin-4-yl)-1H-imidazol-2-amine]
- MIC [1]: 1 to 10 µM (≈ 0.28 to 2.8 µg/mL)
- MIC [2]: > 100 µM
- MIC [3]: > 100 µM
- MIC [4]: 1 to 10 µM (≈ 0.28 to 2.8 µg/mL)
- MIC [9]: ≤ 1 µM
- MIC [5]: > 100 µM
- MIC [6]: > 100 µM
- MIC [7]: > 100 µM
- MIC [8]: > 100 µM
- MIC [10]: 10 to 100 µM (≈ 2.8 to 28 µg/mL)
- IC50 [11]: > 100 µM

SMILES: Cc1cc(-c2[nH]c(N)nc2-c2cc(F)c3c(c2)OCCO3)ccn1 [Example 56, 4-(8-fluoro-2,3-dihydrobenzo[b][1,4]dioxin-6-yl)-5-(2-methylpyridin-4-yl)-1H-imidazol-2-amine]
- MIC [1]: 1 to 10 µM (≈ 0.326 to 3.26 µg/mL)
- MIC [2]: > 100 µM
- MIC [4]: 1 to 10 µM (≈ 0.326 to 3.26 µg/mL)
- MIC [9]: ≤ 1 µM
- MIC [12]: ≤ 1 µM
- MIC [5]: > 100 µM
- MIC [8]: > 100 µM
- MIC [13]: 1 to 10 µM (≈ 0.326 to 3.26 µg/mL)
- MIC [14]: ≤ 1 µM
- MIC [15]: ≤ 1 µM
- MIC [16]: 1 to 10 µM (≈ 0.326 to 3.26 µg/mL)
- MIC [17]: 1 to 10 µM (≈ 0.326 to 3.26 µg/mL)
- MIC [18]: 1 to 10 µM (≈ 0.326 to 3.26 µg/mL)
- MIC [19]: ≤ 1 µM
- MIC [10]: 1 to 10 µM (≈ 0.326 to 3.26 µg/mL)
- IC50 [11]: > 100 µM

SMILES: Cc1cc(-c2[nH]c(N)nc2-c2ccc3c(c2)N(CC2CC2)CCO3)ccn1 [Example 92, 4-(4-(Cyclopropyl-methyl)-3,4-dihydro-2H-benzo[b][1,4]oxazin-6-yl)-5-(2-methylpyridin-4-yl)-1H-imidazol-2-amine]
- MIC [1]: 1 to 10 µM (≈ 0.361 to 3.61 µg/mL)
- MIC [2]: > 100 µM
- MIC [4]: ≤ 1 µM
- MIC [9]: ≤ 1 µM
- MIC [12]: 1 to 10 µM (≈ 0.361 to 3.61 µg/mL)
- MIC [5]: > 100 µM
- MIC [8]: > 100 µM
- MIC [13]: 1 to 10 µM (≈ 0.361 to 3.61 µg/mL)
- MIC [14]: 1 to 10 µM (≈ 0.361 to 3.61 µg/mL)
- MIC [15]: ≤ 1 µM
- MIC [16]: 1 to 10 µM (≈ 0.361 to 3.61 µg/mL)
- MIC [17]: 1 to 10 µM (≈ 0.361 to 3.61 µg/mL)
- MIC [18]: 1 to 10 µM (≈ 0.361 to 3.61 µg/mL)
- MIC [19]: ≤ 1 µM
- MIC [10]: 1 to 10 µM (≈ 0.361 to 3.61 µg/mL)
- IC50 [11]: 25 to 100 µM
